Source: ChEMBL document CHEMBL1201862, “PubChem BioAssay data set” (2004)
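How tested: cells in 96-well plates exposed to compound for 48 hours at five concentrations. GI50 = concentration required for 50% inhibition of growth.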 The source made the active and inactive calls. No stated cut-off is given here; in the data, active = GI50 up to about 1.1 µM and inactive = higher.

Experiments:
Assay in all cases: inhibition of tumour cell growth, NCI panel, 48 h
[1] = test system: 786-0
[2] = test system: A498
[3] = test system: A549
[4] = test system: ACHN
[5] = test system: BT-549
[6] = test system: CAKI-1
[7] = test system: CCRF-CEM
[8] = test system: COLO 205
[9] = test system: DU-145
[10] = test system: EKVX
[11] = test system: HCC 2998
[12] = test system: HCT-116
[13] = test system: HCT-15
[14] = test system: HL-60
[15] = test system: HOP-62
[16] = test system: HOP-92
[17] = test system: HT-29
[18] = test system: Hs-578T
[19] = test system: IGROV-1
[20] = test system: K562
[21] = test system: KM12
[22] = test system: LOX IMVI
[23] = test system: M14
[24] = test system: MCF7
[25] = test system: MDA-MB-231
[26] = test system: MDA-MB-435
[27] = test system: MDA-N
[28] = test system: MOLT-4
[29] = test system: Malme-3M
[30] = test system: NCI-H226
[31] = test system: NCI-H23
[32] = test system: NCI-H460
[33] = test system: NCI-H522
[34] = test system: NCI/ADR-RES
[35] = test system: OVCAR-3
[36] = test system: OVCAR-4
[37] = test system: OVCAR-5
[38] = test system: OVCAR-8
[39] = test system: PC-3
[40] = test system: RXF 393
[41] = test system: SF-268
[42] = test system: SF-295
[43] = test system: SF-539
[44] = test system: SK-MEL-28
[45] = test system: SK-MEL-2
[46] = test system: SK-MEL-5
[47] = test system: SK-OV-3
[48] = test system: SN12C
[49] = test system: SNB-19
[50] = test system: SNB-75
[51] = test system: SR
[52] = test system: SW-620
[53] = test system: T47D
[54] = test system: TK-10
[55] = test system: U-251
[56] = test system: UACC-257
[57] = test system: UACC-62
[58] = test system: UO-31
[59] = test system: RPMI-8226

O=C(NNC(=S)Nc1ccc(Cl)cc1)C12CC3CC(CC(C3)C1)C2
GI50 [1]: 5.15 µM (inactive)
GI50 [2]: 4.82 µM (inactive)
GI50 [3]: 3.84 µM (inactive)
GI50 [4]: 4.19 µM (inactive)
GI50 [5]: 11.6 µM (inactive)
GI50 [6]: 7.19 µM (inactive)
GI50 [7]: 1.29 µM (inactive)
GI50 [8]: 3.32 µM (inactive)
GI50 [9]: 11.6 µM (inactive)
GI50 [10]: 5.73 µM (inactive)
GI50 [11]: 7.1 µM (inactive)
GI50 [12]: 2.57 µM (inactive)
GI50 [13]: 3.18 µM
GI50 [14]: 1.68 µM (inactive)
GI50 [15]: 11.2 µM (inactive)
GI50 [16]: 11.3 µM (inactive)
GI50 [17]: 3.78 µM (inactive)
GI50 [18]: 17.1 µM (inactive)
GI50 [19]: 3.34 µM (inactive)
GI50 [20]: 4.24 µM (inactive)
GI50 [21]: 9.84 µM (inactive)
GI50 [22]: 2.53 µM (inactive)
GI50 [23]: 7.74 µM (inactive)
GI50 [24]: 3.37 µM (inactive)
GI50 [25]: 3.88 µM (inactive)
GI50 [26]: 7.53 µM (inactive)
GI50 [27]: 10.2 µM (inactive)
GI50 [28]: 1.98 µM (inactive)
GI50 [29]: 7.98 µM (inactive)
GI50 [30]: 10.7 µM (inactive)
GI50 [31]: 7.5 µM (inactive)
GI50 [32]: 2.97 µM (inactive)
GI50 [33]: 3.58 µM (inactive)
GI50 [34]: 3.56 µM (inactive)
GI50 [35]: 2.45 µM (inactive)
GI50 [36]: 4.92 µM (inactive)
GI50 [37]: 20.3 µM (inactive)
GI50 [38]: 3.52 µM (inactive)
GI50 [39]: 3.19 µM (inactive)
GI50 [40]: 14.7 µM (inactive)
GI50 [41]: 6.05 µM (inactive)
GI50 [42]: 5.87 µM (inactive)
GI50 [43]: 3.93 µM (inactive)
GI50 [44]: 14.8 µM (inactive)
GI50 [45]: 14.3 µM (inactive)
GI50 [46]: 3.85 µM (inactive)
GI50 [47]: 9.79 µM (inactive)
GI50 [48]: 6.52 µM (inactive)
GI50 [49]: 5.15 µM (inactive)
GI50 [50]: 15.6 µM (inactive)
GI50 [51]: 1.04 µM (active)
GI50 [52]: 3.76 µM (inactive)
GI50 [53]: 4.59 µM (inactive)
GI50 [54]: 16.5 µM (inactive)
GI50 [55]: 3.6 µM (inactive)
GI50 [56]: 6.15 µM (inactive)
GI50 [57]: 3.88 µM (inactive)
GI50 [58]: 1.38 µM (inactive)

CCCCC[C@H](O)[C@H](C)C=C1SCCCS1
GI50 [1]: > 100 µM (inactive)
GI50 [2]: > 100 µM (inactive)
GI50 [3]: > 100 µM (inactive)
GI50 [4]: > 100 µM (inactive)
GI50 [5]: > 100 µM (inactive)
GI50 [6]: > 100 µM (inactive)
GI50 [7]: > 100 µM (inactive)
GI50 [8]: > 100 µM (inactive)
GI50 [9]: > 100 µM (inactive)
GI50 [10]: > 100 µM (inactive)
GI50 [11]: > 100 µM (inactive)
GI50 [12]: > 100 µM (inactive)
GI50 [13]: > 100 µM
GI50 [14]: > 100 µM (inactive)
GI50 [15]: > 100 µM (inactive)
GI50 [16]: > 100 µM (inactive)
GI50 [17]: > 100 µM (inactive)
GI50 [18]: > 100 µM (inactive)
GI50 [19]: > 100 µM (inactive)
GI50 [20]: > 100 µM (inactive)
GI50 [21]: > 100 µM (inactive)
GI50 [22]: > 100 µM (inactive)
GI50 [23]: > 100 µM (inactive)
GI50 [24]: > 100 µM (inactive)
GI50 [25]: > 100 µM (inactive)
GI50 [26]: > 100 µM (inactive)
GI50 [27]: > 100 µM (inactive)
GI50 [28]: > 100 µM (inactive)
GI50 [29]: > 100 µM (inactive)
GI50 [30]: > 100 µM (inactive)
GI50 [31]: > 100 µM (inactive)
GI50 [33]: > 100 µM (inactive)
GI50 [34]: > 100 µM (inactive)
GI50 [35]: > 100 µM (inactive)
GI50 [36]: > 100 µM (inactive)
GI50 [37]: > 100 µM (inactive)
GI50 [38]: > 100 µM (inactive)
GI50 [39]: > 100 µM (inactive)
GI50 [59]: > 100 µM (inactive)
GI50 [40]: > 100 µM (inactive)
GI50 [41]: > 100 µM (inactive)
GI50 [42]: > 100 µM (inactive)
GI50 [44]: > 100 µM (inactive)
GI50 [45]: > 100 µM (inactive)
GI50 [46]: > 100 µM (inactive)
GI50 [47]: > 100 µM (inactive)
GI50 [48]: > 100 µM (inactive)
GI50 [49]: > 100 µM (inactive)
GI50 [50]: > 100 µM (inactive)
GI50 [51]: > 100 µM (inactive)
GI50 [52]: > 100 µM (inactive)
GI50 [53]: 43.2 µM (inactive)
GI50 [54]: > 100 µM (inactive)
GI50 [55]: > 100 µM (inactive)
GI50 [56]: > 100 µM (inactive)
GI50 [57]: > 100 µM (inactive)
GI50 [58]: > 100 µM (inactive)

CN(NC(=O)CCCl)C1=NCCCCN1
GI50 [1]: > 100 µM (inactive)
GI50 [2]: > 100 µM (inactive)
GI50 [3]: > 100 µM (inactive)
GI50 [4]: > 100 µM (inactive)
GI50 [5]: > 100 µM (inactive)
GI50 [7]: > 100 µM (inactive)
GI50 [8]: > 100 µM (inactive)
GI50 [9]: > 100 µM (inactive)
GI50 [10]: > 100 µM (inactive)
GI50 [11]: > 100 µM (inactive)
GI50 [12]: > 100 µM (inactive)
GI50 [13]: > 100 µM
GI50 [14]: > 100 µM (inactive)
GI50 [15]: > 100 µM (inactive)
GI50 [16]: > 100 µM (inactive)
GI50 [17]: > 100 µM (inactive)
GI50 [18]: > 100 µM (inactive)
GI50 [19]: > 100 µM (inactive)
GI50 [20]: > 100 µM (inactive)
GI50 [21]: > 100 µM (inactive)
GI50 [22]: > 100 µM (inactive)
GI50 [23]: > 100 µM (inactive)
GI50 [24]: > 100 µM (inactive)
GI50 [25]: > 100 µM (inactive)
GI50 [26]: > 100 µM (inactive)
GI50 [27]: > 100 µM (inactive)
GI50 [28]: > 100 µM (inactive)
GI50 [29]: > 100 µM (inactive)
GI50 [30]: > 100 µM (inactive)
GI50 [31]: > 100 µM (inactive)
GI50 [32]: > 100 µM (inactive)
GI50 [33]: > 100 µM (inactive)
GI50 [34]: > 100 µM (inactive)
GI50 [35]: > 100 µM (inactive)
GI50 [36]: > 100 µM (inactive)
GI50 [37]: > 100 µM (inactive)
GI50 [38]: > 100 µM (inactive)
GI50 [39]: > 100 µM (inactive)
GI50 [59]: > 100 µM (inactive)
GI50 [40]: > 100 µM (inactive)
GI50 [41]: > 100 µM (inactive)
GI50 [42]: > 100 µM (inactive)
GI50 [43]: > 100 µM (inactive)
GI50 [44]: > 100 µM (inactive)
GI50 [45]: > 100 µM (inactive)
GI50 [46]: > 100 µM (inactive)
GI50 [47]: > 100 µM (inactive)
GI50 [48]: > 100 µM (inactive)
GI50 [49]: > 100 µM (inactive)
GI50 [50]: > 100 µM (inactive)
GI50 [51]: > 100 µM (inactive)
GI50 [52]: > 100 µM (inactive)
GI50 [53]: > 100 µM (inactive)
GI50 [54]: > 100 µM (inactive)
GI50 [55]: > 100 µM (inactive)
GI50 [56]: > 100 µM (inactive)
GI50 [57]: > 100 µM (inactive)
GI50 [58]: > 100 µM (inactive)

c1ccc(-c2nn(-c3ccccc3)[n+](-c3ccccc3)n2)cc1 [TETRAZOLIUM RED]
GI50 [1]: 14.3 µM (inactive)
GI50 [2]: > 74.6 µM (inactive)
GI50 [3]: 23.9 µM (inactive)
GI50 [4]: > 78 µM (inactive)
GI50 [5]: > 50.5 µM (inactive)
GI50 [6]: > 100 µM (inactive)
GI50 [7]: 0.718 µM (active)
GI50 [9]: > 48.5 µM (inactive)
GI50 [10]: 2.4 µM (inactive)
GI50 [11]: 1.53 µM (inactive)
GI50 [12]: 6.5 µM (inactive)
GI50 [13]: > 100 µM
GI50 [14]: 0.184 µM (active)
GI50 [15]: 19.5 µM (inactive)
GI50 [16]: 24.1 µM (inactive)
GI50 [17]: 18.6 µM (inactive)
GI50 [18]: 31.6 µM (inactive)
GI50 [19]: 3.1 µM (inactive)
GI50 [20]: 18.6 µM (inactive)
GI50 [21]: 11.3 µM (inactive)
GI50 [22]: 11.9 µM (inactive)
GI50 [23]: 10.7 µM (inactive)
GI50 [24]: 2.88 µM (inactive)
GI50 [25]: 20 µM (inactive)
GI50 [26]: 11.1 µM (inactive)
GI50 [27]: 12.9 µM (inactive)
GI50 [28]: 19.1 µM (inactive)
GI50 [29]: 0.394 µM (active)
GI50 [30]: 24.5 µM (inactive)
GI50 [31]: 7.29 µM (inactive)
GI50 [32]: 21.1 µM (inactive)
GI50 [33]: > 37.9 µM (inactive)
GI50 [34]: > 100 µM (inactive)
GI50 [35]: 0.191 µM (active)
GI50 [36]: 2.01 µM (inactive)
GI50 [37]: 35.7 µM (inactive)
GI50 [38]: 49.9 µM (inactive)
GI50 [39]: 3.83 µM (inactive)
GI50 [40]: 11.6 µM (inactive)
GI50 [41]: 14.5 µM (inactive)
GI50 [42]: > 56.1 µM (inactive)
GI50 [43]: 33 µM (inactive)
GI50 [44]: 19.4 µM (inactive)
GI50 [45]: 36.8 µM (inactive)
GI50 [46]: 3.49 µM (inactive)
GI50 [47]: > 100 µM (inactive)
GI50 [48]: 9.59 µM (inactive)
GI50 [49]: > 35.6 µM (inactive)
GI50 [50]: > 67.6 µM (inactive)
GI50 [51]: 3.37 µM (inactive)
GI50 [52]: 16.1 µM (inactive)
GI50 [53]: > 100 µM (inactive)
GI50 [54]: 43 µM (inactive)
GI50 [55]: 8.97 µM (inactive)
GI50 [56]: 2.85 µM (inactive)
GI50 [57]: 13.8 µM (inactive)
GI50 [58]: > 100 µM (inactive)
